Where two headings read alike, the source gives them in different places.
What was measured:
Assay type in all cases: in vivo
[1] = system: Southern corn rootworm (Diabrotica undecimpuctata howardi Barber); test: Mite/insect screen, soil treatment (CRW); conditions: Diabrotica, percent mortality, soil treatment, read-out: CRW RESULTS %
Method in brief: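 Compounds dissolved in acetone/alcohol (50:50) with Toximul R/S emulsifiers, diluted with water. Soil (15 g, with presoaked corn seed) treated with 1 mL test solution, dried 6–12 h, then five 2–3 instar larvae added; held at 23°C. Percent mortality and phytotoxicity scored after standard exposure periods.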

[2] = system: Pseudoperonospora cubensis (downy mildew); test: Greenhouse Test 1, foliar spray fungicide screen (DOWN MDEW), host squash; conditions: disease control rating, 400 ppm (+++ at 100 ppm)
[3] = system: melon aphids (Aphis gossypii Glover); test: Mite/insect screen, sprayed squash cotyledons (MA); conditions: Aphis gossypii, percent mortality, read-out: MA RESULTS %
Method in brief: (§1)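 Water-diluted formulations of each compound (acetone/alcohol 50:50 with 23 g/L and 13 g/L emulsifier blends) are sprayed over both leaf faces to runoff. After a standard exposure period, percent kill and phytotoxicity are recorded.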

[4] = system: southern armyworm (Spodopetra eridania Cramer); test: Mite/insect screen, sprayed squash leaves (SAW); conditions: Spodoptera eridania, percent mortality, read-out: SAW RESULTS %
Method in brief: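 Percent mortality and phytotoxicity are the read-outs, assessed after standard exposure periods. Test solutions, made in 50:50 acetone/alcohol with two sulfonate/nonionic emulsifier blends and diluted in water, are sprayed to runoff on both leaf surfaces, which then dry for one hour.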

[5] = system: Botrytis cinerea (gray mold); test: Greenhouse Test 1, foliar spray fungicide screen (GRAY MOLD), host grape berries; conditions: disease control rating, 400 ppm (+++ at 100 ppm)
[6] = system: Twospotted spider mites (Tetranychus urticae Koch); test: Mite/insect screen, sprayed squash cotyledons (SM); conditions: Tetranychus urticae, percent mortality, read-out: SM RESULTS %
Method in brief: as §1

[7] = system: Pyricularia oryzae (rice blast); conditions: disease control rating, foliar spray, host rice; 400 ppm (+++ at 100 ppm)
[8] = system: Erysiphe graminis tritici (powdery mildew); test: Greenhouse Test 1, foliar spray fungicide screen (POWD MDEW), host wheat; conditions: disease control rating, 400 ppm (+++ at 100 ppm)
[9] = system: Puccinia recondita tritici (leaf rust); test: Greenhouse Test 1, foliar spray fungicide screen (LEAF RUST), host wheat; conditions: disease control rating, 400 ppm (+++ at 100 ppm)

| SMILES | mortality at 12 ppm ([1]; CRW rate 12.00 ppm) [%] | mortality at 24 ppm ([1]; CRW rate 24.00 ppm) [%] | DOWN MDEW [2] | mortality at 200 ppm ([3]; spray rate 200 ppm) [%] | mortality at 400 ppm ([3]; spray rate 400 ppm) [%] | mortality at 200 ppm ([4]; spray rate 200 ppm) [%] | mortality at 400 ppm ([4]; spray rate 400 ppm) [%] | GRAY MOLD [5] | mortality at 200 ppm ([6]; spray rate 200 ppm) [%] | mortality at 400 ppm ([6]; spray rate 400 ppm) [%] | RICE BLAST [7] | POWD MDEW [8] | LEAF RUST [9] | further results |
| --- | --- | --- | --- | --- | --- | --- | --- | --- | --- | --- | --- | --- | --- | --- |
| CC(C)c1ccc(CCCOc2ncnc3c(F)cccc23)cc1 [Example 152, 8-fluoro-4-[3-[4-(1-methylethyl)phenyl]propoxy]quinazoline] | 0 | 0 | + (+ = 20-89% control at 400 ppm) | 40 | 80 | 0 | 0 | - (- = 0-19% control at 400 ppm) | 90 | 60 | + (+ = 20-89% control at 400 ppm) | +++ (+++ = 90-100% control at 100 ppm) | + (+ = 20-89% control at 400 ppm) | – |
| c1ccc(Oc2ccccc2CCNc2ncnc3ccccc23)cc1 [Example 45, N-[2-(2-phenoxyphenyl)ethyl]-4-quinazolinamine] | – | 0 | + (+ = 20-89% control at 400 ppm) | – | 0 | – | 0 | - (- = 0-19% control at 400 ppm) | – | 0 | - (- = 0-19% control at 400 ppm) | + (+ = 20-89% control at 400 ppm) | +++ (+++ = 90-100% control at 100 ppm) | – |
| CCOc1ccc(CCOc2ncnc3c(F)cccc23)cc1 [Example 170, 4-[2-(4-ethoxyphenyl)ethoxy]-8-fluoroquinazoline] | 0 | 0 | +++ (+++ = 90-100% control at 100 ppm) | 80 | 100 | 0 | 100 | - (- = 0-19% control at 400 ppm) | 20 | 100 | +++ (+++ = 90-100% control at 100 ppm) | +++ (+++ = 90-100% control at 100 ppm) | +++ (+++ = 90-100% control at 100 ppm) | – |
| CC(COc1ncnc2c(F)cccc12)c1ccc(-c2ccccc2)cc1 (stereo not drawn) [Example 199, 8-fluoro-4-[2-(1,1'-biphenyl)4-ylpropoxy]quinazoline] | – | – | + (+ = 20-89% control at 400 ppm) | – | – | – | – | - (- = 0-19% control at 400 ppm) | – | – | + (+ = 20-89% control at 400 ppm) | +++ (+++ = 90-100% control at 100 ppm) | +++ (+++ = 90-100% control at 100 ppm) | mortality at 12 ppm ([1]; corn rootworm, CRW RATE 12.00 PPM): 0%; mortality at 24 ppm ([1]; corn rootworm, CRW RATE 24.00 PPM): 0%; mortality at 200 ppm ([3]; melon aphids, sprayed squash cotyledons, RATE 200 PPM): 100%; mortality at 400 ppm ([3]; melon aphids, sprayed squash cotyledons, RATE 400 PPM): 0%; mortality at 200 ppm ([4]; Southern armyworm, sprayed squash leaves, RATE 200 PPM): 0%; mortality at 400 ppm ([4]; Southern armyworm, sprayed squash leaves, RATE 400 PPM): 60%; mortality at 200 ppm ([6]; twospotted spider mites, sprayed squash cotyledons, RATE 200 PPM): 100%; mortality at 400 ppm ([6]; twospotted spider mites, sprayed squash cotyledons, RATE 400 PPM): 0% |
| c1ccc(Oc2ccc(CCCOc3ncnc4ccccc34)cc2)cc1 [Example 151, 4-[3-(4-phenoxyphenyl)propoxy]quinazoline] | 0 | 0 | - (- = 0-19% control at 400 ppm) | 80 | 0 | 0 | 0 | - (- = 0-19% control at 400 ppm) | 0 | 0 | - (- = 0-19% control at 400 ppm) | + (+ = 20-89% control at 400 ppm) | - (- = 0-19% control at 400 ppm) | – |
| Cc1ccc(CCOc2ncnc3c(F)cccc23)cc1 [Example 99] | 0 | 0 | +++ (+++ = 90-100% control at 100 ppm) | 100 | 0 | 0 | 0 | - (- = 0-19% control at 400 ppm) | 100 | 0 | - (- = 0-19% control at 400 ppm) | +++ (+++ = 90-100% control at 100 ppm) | +++ (+++ = 90-100% control at 100 ppm) | – |
| FC(F)(F)c1cccc(Oc2ccc(CCOc3ncnc4ccccc34)cc2)c1 [Example 188, 4-[2-[4-[3-(trifluoromethyl)phenoxy]phenyl]ethoxy]quinazoline] | 0 | 100 | +++ (+++ = 90-100% control at 100 ppm) | 100 | 80 | 0 | 80 | - (- = 0-19% control at 400 ppm) | 100 | – | +++ (+++ = 90-100% control at 100 ppm) | +++ (+++ = 90-100% control at 100 ppm) | +++ (+++ = 90-100% control at 100 ppm) | – |
| CCOc1ccc(CCCOc2ncnc3ccccc23)cc1 [Example 158, 4-[3-(4-ethoxyphenyl)propoxy]quinazoline] | 0 | 0 | +++ (+++ = 90-100% control at 100 ppm) | 0 | 40 | 0 | 0 | - (- = 0-19% control at 400 ppm) | 0 | 60 | ++ (++ = 90-100% control at 400 ppm) | + (+ = 20-89% control at 400 ppm) | + (+ = 20-89% control at 400 ppm) | – |
| FC(F)(F)c1cccc(CCOc2ncnc3ccccc23)c1 [Example 51, 4-[2-[3-(trifluoromethyl)phenyl]ethoxy]quinazoline] | – | 0 | +++ (+++ = 90-100% control at 100 ppm) | – | 0 | – | 0 | - (- = 0-19% control at 400 ppm) | – | 0 | +++ (+++ = 90-100% control at 100 ppm) | ++ (++ = 90-100% control at 400 ppm) | ++ (++ = 90-100% control at 400 ppm) | – |
| FC(F)(F)Oc1ccc2ncnc(NCCc3ccc(Oc4ccccc4)cc3)c2c1 [Example 44, 6-(trifluoromethoxy)-N-[2-(4-phenoxyphenyl)ethyl]-4-quinazolinamine] | – | 0 | + (+ = 20-89% control at 400 ppm) | – | 0 | – | 0 | - (- = 0-19% control at 400 ppm) | – | 0 | - (- = 0-19% control at 400 ppm) | - (- = 0-19% control at 400 ppm) | - (- = 0-19% control at 400 ppm) | – |
